Test results taken from paper PMC2717725 (Journal of medicinal chemistry, 2008).
Counter-ions that a name gives are not always drawn.

What was measured:
[1] = system: GSK-3 -phosphorylated β-catenin; test: β-catenin phosphorylation at GSK-3 sites in SH-SY5Y cells; type: cell-based, human; conditions: 6 h, 10 μM or dose-response, 2 μM MG132
[2] = target: CDK1/cyclin B; test: CDK1/cyclin B kinase assay; type: biochemical, starfish (Marthasterias glacialis); conditions: read-out: CDK1 IC50, 15 μM ATP
[3] = target: GSK-3α/β; test: GSK-3α/β kinase assay; type: biochemical, porcine; conditions: for IC50: read-out: GSK3 IC50, GSK-3α/β, 15 μM ATP, from dose-response curves
[4] = Equilibrium water solubility; type: physicochemical
[5] = system: Rat-1 fibroblasts; test: Luminescence assay of circadian rhythmicity, PPer2::Fluc reporter; type: cell-based; conditions: 10 μM, Rat-1 PPer2::Fluc, monitored 4 days
[6] = system: Rat-1 fibroblasts; conditions: lithium 10-20 mM, mammalian cells; cited from earlier work

## CN1C(=O)C(=C2Nc3ccccc3C2=NO)c2ccc(Br)cc21 [1-methyl-6BIO, reference compound]
[1]
  inhibition of β-catenin phosphorylation at GSK-3 specific sites: ineffective

## O=C1Nc2cc(Br)ccc2/C1=C1/Nc2ccccc2/C1=N\OCCBr [Compound 1, (2′Z-3′E)-6-Bromoindirubin-3′-[O-(2-bromoethyl)-oxime]]
[2]
  IC50: > 10 µM

## O=C1Nc2cc(Br)ccc2/C1=C1/Nc2ccccc2/C1=N\OCCO [Compound 2, (2′Z-3′E)-6-Bromoindirubin-3′-[O-(2-hydroxyethyl)-oxime]]
[3]
  IC50: 0.003 µM
[2]
  IC50: > 10 µM

## O=C1Nc2cc(Br)ccc2/C1=C1/Nc2ccccc2/C1=N\OCC(O)CO (stereo not drawn) [Compound 3, (2′Z-3′E)-6-Bromoindirubin-3′-[O-(2,3-dihydroxypropyl)-oxime]]
[4]; water
  solubility change versus 6BIO (in words): mediocre improvement of solubility
[3]; relative to 6BIO
  decrease of activity/affinity on GSK-3 compared to 6BIO: 6 fold
[1]
  inhibition of β-catenin phosphorylation at GSK-3 specific sites: most efficient
[2]
  IC50: 0.11 µM

## CCN(CC)C(=O)O/N=C1/C(=C2/C(=O)Nc3cc(Br)ccc32)Nc2ccccc21 [Compound 4, (2′Z-3′E)-6-Bromoindirubin-3′-[O-(N,N-diethylcarbamyl)-oxime]]
[2]
  IC50: > 10 µM

## CN(C)CCO/N=C1/C(=C2/C(=O)Nc3cc(Br)ccc32)Nc2ccccc21 [Compound 5, (2′Z-3′E)-6-Bromoindirubin-3′-[O-(2-dimethylaminoethyl)-oxime]]
[1]
  inhibition of β-catenin phosphorylation at GSK-3 specific sites: most efficient

## O=C1Nc2cc(Br)ccc2/C1=C1/Nc2ccccc2/C1=N\OCCN1CCCC1 [Compound 7, (2′Z-3′E)-6-Bromoindirubin-3′-[O-(2-pyrrolidin-1-ylethyl)oxime]]
[2]
  IC50: 0.5 µM

## O=C1Nc2cc(Br)ccc2/C1=C1/Nc2ccccc2/C1=N\OCCN(CCO)CCO [Compound 9]
[1]
  inhibition of β-catenin phosphorylation at GSK-3 specific sites: most efficient

## O=C1Nc2cc(Br)ccc2/C1=C1/Nc2ccccc2/C1=N\OCCN1CCNCC1 [Compound 11, (2′Z-3′E)-6-Bromoindirubin-3′-[O-(2-piperazine-1-ylethyl)oxime]]
[1]
  inhibition of β-catenin phosphorylation at GSK-3 specific sites: most efficient

## CN1CCN(CCO/N=C2/C(=C3/C(=O)Nc4cc(Br)ccc43)Nc3ccccc32)CC1 [Compound 12, (2′Z-3′E)-6-Bromoindirubin-3′-{O-[2-(4-methyl-piperazin-1-yl)ethyl]oxime}]
[3]; GSK-3 over CDKs, compared to 6BIO
  selectivity for GSK-3 versus 6BIO: improved selectivity of one order of magnitude
[1]
  inhibition of β-catenin phosphorylation at GSK-3 specific sites: most efficient

## O=C1Nc2cc(Br)ccc2/C1=C1/Nc2ccccc2/C1=N\OCCN1CCN(CCO)CC1 [Compound 13, (2′Z-3′E)-6-Bromoindirubin-3′-(O-{2-[4-(2-hydroxyethyl)piperazin-1-yl]ethyl}oxime)]
[1]
  inhibition of β-catenin phosphorylation at GSK-3 specific sites: most efficient

## O=C1Nc2cc(Br)ccc2/C1=C1/Nc2ccccc2/C1=N\OCCN1CCN(CCOCCO)CC1 [Compound 15, (2′Z-3′E)-6-Bromoindirubin-3′-[O-(2-{4-[2-(2-hydroxyethoxy)-ethyl]piperazin-1-yl}ethyl)oxime]]
[5]
  effect on circadian period length: gradual shortening of the period length
[2]
  IC50: 0.9 µM

## CN(C)CCO/N=C1/C(=C2/C(=O)Nc3cc(Br)ccc32)Nc2ccccc21.Cl [Compound 16, (2′Z-3′E)-6-Bromoindirubin-3′-[O-(2-dimethylaminoethyl)oxime] Hydrochloride]
[1]
  inhibition of β-catenin phosphorylation at GSK-3 specific sites: most efficient

## O=C1Nc2cc(Br)ccc2/C1=C1/Nc2ccccc2/C1=N\OCCN1CCCC1 [Compound 18, (2′Z-3′E)-6-Bromoindirubin-3′-[O-(2-pyrrolidin-1-ylethyl)oxime] Hydrochloride]
[2]
  IC50: 0.45 µM

## Cl.O=C1Nc2cc(Br)ccc2/C1=C1/Nc2ccccc2/C1=N\OCCN(CCO)CCO [Compound 20]
[1]
  inhibition of β-catenin phosphorylation at GSK-3 specific sites: most efficient

## CN(CCON=C1C(=C2C(=O)Nc3cc(Br)ccc32)Nc2ccccc21)CC(O)CO.Cl (stereo not drawn) [Compound 21, (2Z-3′E)-6-Bromoindirubin-3′-(O-{2-[N-methyl, N-(2,3-dihydroxypropyl)amino]ethyl}oxime] Hydrochloride]
[4]; double distilled water
  solubility: 1450 µg/mL
[3]
  IC50: 0.023 µM
[2]
  IC50: 0.15 µM

## Cl.Cl.O=C1Nc2cc(Br)ccc2/C1=C1/Nc2ccccc2/C1=N\OCCN1CCNCC1 [Compound 22, (2′Z-3′E)-6-Bromoindirubin-3′-[O-(2-piperazine-1-ylethyl)oxime] Dihydrochloride]
[1]
  inhibition of β-catenin phosphorylation at GSK-3 specific sites: most efficient

## CN1CCN(CCO/N=C2/C(=C3/C(=O)Nc4cc(Br)ccc43)Nc3ccccc32)CC1.Cl.Cl [Compound 23, (2′Z-3′E)-6-Bromoindirubin-3′-{O-[2-(4-methylpiperazin-1-yl)ethyl]oxime} Dihydrochloride]
[1]
  inhibition of β-catenin phosphorylation at GSK-3 specific sites: most efficient

## Cl.Cl.O=C1Nc2cc(Br)ccc2/C1=C1/Nc2ccccc2/C1=N\OCCN1CCN(CCO)CC1 [Compound 24, (2′Z-3E)-6-Bromoindirubin-3′-(O-{2-[4-(2-hydroxyethyl)piperazin-1-yl]ethyl}oxime) Dihydrochloride]
[1]
  inhibition of β-catenin phosphorylation at GSK-3 specific sites: most efficient

## COCCN1CCN(CCO/N=C2/C(=C3/C(=O)Nc4cc(Br)ccc43)Nc3ccccc32)CC1 [Compound 25, (2′Z-3E)-6-Bromoindirubin-3′-(O-{2-[4-(2-methoxyethyl)piperazin-1-yl]ethyl}oxime) Dihydrochloride]
[2]
  IC50: 1 µM

## O=C1Nc2cc(Br)ccc2/C1=C1/Nc2ccccc2/C1=N\OCCN1CCN(CCOCCO)CC1 [Compound 26, (2′Z-3′E)-6-Bromoindirubin-3′-[O-(2-{4-[2-(2-hydroxyethoxy)-ethyl]piperazin-1-yl}ethyl)oxime] Dihydrochloride]
[2]
  IC50: 0.5 µM

## [Li] [Lithium]
[6]
  effect on circadian period: lengthens the period
